Paper PMC6120666 (The EMBO Journal, 2018)

Legend:
Assay in all cases: Drug affinity chromatography with c-ponatinib and LC-MS/MS (ponatinib interactome)
Assay type in all cases: binding
[1] = molecular target: T1, proteins of U2OS cell lysate (Homo sapiens, UniProt P10606); conditions: captured protein COX5B, Rank 183
T1 construct: Proteins enriched by c-ponatinib from U2OS cell lysate; endogenous in cells; host or cells: U2OS cell lysate
Procedure, shortened: (§1)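 Proteins were identified by nano-UPLC–MS/MS after elution with formic acid and trypsin digestion. They were captured from U2OS lysate (2 mg protein per pulldown, NP-40 buffer) on amine-coupled NHS beads during a 2 h incubation at 4 °C.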

[2] = molecular target: T2, proteins of U2OS cell lysate (Homo sapiens, UniProt P40939); conditions: HADHA, Trifunctional enzyme subunit alpha, mitochondrial
T2 construct: Proteins enriched by c-ponatinib from U2OS cell lysate; endogenous in cells; host or cells: U2OS cell lysate
Procedure, shortened: as §1

[3] = molecular target: T3, proteins of U2OS cell lysate (Homo sapiens, UniProt O43353); conditions: RIPK2, Receptor-interacting serine/threonine-protein kinase 2
T3 construct: Proteins enriched by c-ponatinib from U2OS cell lysate; endogenous in cells; host or cells: U2OS cell lysate
Procedure, shortened: as §1

[4] = molecular target: T4, proteins of U2OS cell lysate (Homo sapiens, UniProt P51610); conditions: HCFC1, Host cell factor 1
T4 construct: Proteins enriched by c-ponatinib from U2OS cell lysate; endogenous in cells; host or cells: U2OS cell lysate
Procedure, shortened: as §1

[5] = molecular target: T5, proteins of U2OS cell lysate (Homo sapiens, UniProt P0DMV9); conditions: HSPA1B, Heat shock 70 kDa protein 1B
T5 construct: Proteins enriched by c-ponatinib from U2OS cell lysate; endogenous in cells; host or cells: U2OS cell lysate
Procedure, shortened: as §1

[6] = molecular target: T6, proteins of U2OS cell lysate (Homo sapiens, UniProt P06576); conditions: ATP5B, ATP synthase subunit beta, mitochondrial
T6 construct: Proteins enriched by c-ponatinib from U2OS cell lysate; endogenous in cells; host or cells: U2OS cell lysate
Procedure, shortened: as §1

[7] = molecular target: T7, proteins of U2OS cell lysate (Homo sapiens, UniProt Q9UFG5); conditions: C19orf25, UPF0449 protein C19orf25
T7 construct: Proteins enriched by c-ponatinib from U2OS cell lysate; endogenous in cells; host or cells: U2OS cell lysate
Procedure, shortened: as §1

[8] = molecular target: T8, proteins of U2OS cell lysate (Homo sapiens, UniProt P00403); conditions: MT-CO2, Cytochrome c oxidase subunit 2
T8 construct: Proteins enriched by c-ponatinib from U2OS cell lysate; endogenous in cells; host or cells: U2OS cell lysate
Procedure, shortened: as §1

[9] = molecular target: T9, proteins of U2OS cell lysate (Homo sapiens, UniProt P11441); conditions: UBL4A, Ubiquitin-like protein 4A
T9 construct: Proteins enriched by c-ponatinib from U2OS cell lysate; endogenous in cells; host or cells: U2OS cell lysate
Procedure, shortened: as §1

[10] = molecular target: T10, proteins of U2OS cell lysate (Homo sapiens, UniProt P21333); conditions: FLNA, Filamin-A
T10 construct: Proteins enriched by c-ponatinib from U2OS cell lysate; endogenous in cells; host or cells: U2OS cell lysate
Procedure, shortened: as §1

[11] = molecular target: T11, proteins of U2OS cell lysate (Homo sapiens, UniProt O60664); conditions: PLIN3, Perilipin-3
T11 construct: Proteins enriched by c-ponatinib from U2OS cell lysate; endogenous in cells; host or cells: U2OS cell lysate
Procedure, shortened: as §1

[12] = molecular target: T12, proteins of U2OS cell lysate (Homo sapiens, UniProt Q9Y2V7); conditions: COG6, Conserved oligomeric Golgi complex subunit 6
T12 construct: Proteins enriched by c-ponatinib from U2OS cell lysate; endogenous in cells; host or cells: U2OS cell lysate
Procedure, shortened: as §1

[13] = molecular target: T13, proteins of U2OS cell lysate (Homo sapiens, UniProt P63104); conditions: YWHAZ, 14-3-3 protein zeta/delta
T13 construct: Proteins enriched by c-ponatinib from U2OS cell lysate; endogenous in cells; host or cells: U2OS cell lysate
Procedure, shortened: as §1

T7 sequence (Q9UFG5 whole entry): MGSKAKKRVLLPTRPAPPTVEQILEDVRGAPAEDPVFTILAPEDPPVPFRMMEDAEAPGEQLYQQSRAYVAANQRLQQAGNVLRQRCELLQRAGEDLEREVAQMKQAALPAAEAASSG
T3 sequence (O43353 whole entry): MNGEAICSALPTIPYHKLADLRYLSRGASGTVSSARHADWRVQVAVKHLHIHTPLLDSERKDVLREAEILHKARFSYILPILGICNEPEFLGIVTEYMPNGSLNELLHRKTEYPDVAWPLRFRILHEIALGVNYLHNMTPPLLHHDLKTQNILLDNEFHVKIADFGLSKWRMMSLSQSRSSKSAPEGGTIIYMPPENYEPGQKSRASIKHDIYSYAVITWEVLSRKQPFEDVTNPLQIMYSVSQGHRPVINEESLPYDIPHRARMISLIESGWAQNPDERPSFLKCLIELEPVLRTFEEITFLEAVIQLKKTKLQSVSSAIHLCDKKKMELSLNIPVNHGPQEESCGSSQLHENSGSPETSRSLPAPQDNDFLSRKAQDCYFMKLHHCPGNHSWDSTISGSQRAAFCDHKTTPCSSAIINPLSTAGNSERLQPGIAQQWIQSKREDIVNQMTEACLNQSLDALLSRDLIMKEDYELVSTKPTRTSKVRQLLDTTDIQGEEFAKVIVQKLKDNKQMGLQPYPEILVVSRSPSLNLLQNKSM
T8 sequence (P00403 whole entry): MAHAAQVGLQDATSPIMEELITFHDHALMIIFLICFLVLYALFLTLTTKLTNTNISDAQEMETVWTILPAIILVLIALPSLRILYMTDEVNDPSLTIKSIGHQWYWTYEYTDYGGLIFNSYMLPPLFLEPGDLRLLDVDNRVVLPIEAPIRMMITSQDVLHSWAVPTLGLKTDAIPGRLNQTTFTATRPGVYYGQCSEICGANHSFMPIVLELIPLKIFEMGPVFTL
T5 sequence (P0DMV9 whole entry): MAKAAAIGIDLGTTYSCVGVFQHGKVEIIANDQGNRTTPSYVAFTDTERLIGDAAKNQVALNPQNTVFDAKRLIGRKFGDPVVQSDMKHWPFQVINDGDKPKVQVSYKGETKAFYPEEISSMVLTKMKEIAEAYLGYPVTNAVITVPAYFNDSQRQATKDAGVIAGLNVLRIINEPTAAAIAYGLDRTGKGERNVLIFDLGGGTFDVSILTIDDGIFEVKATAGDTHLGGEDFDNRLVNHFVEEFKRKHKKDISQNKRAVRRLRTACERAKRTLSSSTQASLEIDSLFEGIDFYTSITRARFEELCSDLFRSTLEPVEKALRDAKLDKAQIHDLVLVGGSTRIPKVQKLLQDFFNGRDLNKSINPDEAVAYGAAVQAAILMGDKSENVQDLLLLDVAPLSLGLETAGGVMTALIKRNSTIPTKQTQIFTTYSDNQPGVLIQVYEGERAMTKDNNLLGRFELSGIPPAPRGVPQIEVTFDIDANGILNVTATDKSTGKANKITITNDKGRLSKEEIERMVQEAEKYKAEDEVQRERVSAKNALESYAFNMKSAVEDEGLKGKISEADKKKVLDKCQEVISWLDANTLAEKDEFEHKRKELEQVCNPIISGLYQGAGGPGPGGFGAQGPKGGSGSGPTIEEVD
T13 sequence (P63104 whole entry): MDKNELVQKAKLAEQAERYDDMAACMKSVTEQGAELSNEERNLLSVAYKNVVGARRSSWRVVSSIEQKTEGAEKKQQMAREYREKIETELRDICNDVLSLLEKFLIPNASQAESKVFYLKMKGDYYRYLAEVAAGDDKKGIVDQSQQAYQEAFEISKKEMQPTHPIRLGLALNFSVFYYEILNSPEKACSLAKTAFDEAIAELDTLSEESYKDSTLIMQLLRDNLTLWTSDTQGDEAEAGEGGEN
T10 sequence (P21333 whole entry): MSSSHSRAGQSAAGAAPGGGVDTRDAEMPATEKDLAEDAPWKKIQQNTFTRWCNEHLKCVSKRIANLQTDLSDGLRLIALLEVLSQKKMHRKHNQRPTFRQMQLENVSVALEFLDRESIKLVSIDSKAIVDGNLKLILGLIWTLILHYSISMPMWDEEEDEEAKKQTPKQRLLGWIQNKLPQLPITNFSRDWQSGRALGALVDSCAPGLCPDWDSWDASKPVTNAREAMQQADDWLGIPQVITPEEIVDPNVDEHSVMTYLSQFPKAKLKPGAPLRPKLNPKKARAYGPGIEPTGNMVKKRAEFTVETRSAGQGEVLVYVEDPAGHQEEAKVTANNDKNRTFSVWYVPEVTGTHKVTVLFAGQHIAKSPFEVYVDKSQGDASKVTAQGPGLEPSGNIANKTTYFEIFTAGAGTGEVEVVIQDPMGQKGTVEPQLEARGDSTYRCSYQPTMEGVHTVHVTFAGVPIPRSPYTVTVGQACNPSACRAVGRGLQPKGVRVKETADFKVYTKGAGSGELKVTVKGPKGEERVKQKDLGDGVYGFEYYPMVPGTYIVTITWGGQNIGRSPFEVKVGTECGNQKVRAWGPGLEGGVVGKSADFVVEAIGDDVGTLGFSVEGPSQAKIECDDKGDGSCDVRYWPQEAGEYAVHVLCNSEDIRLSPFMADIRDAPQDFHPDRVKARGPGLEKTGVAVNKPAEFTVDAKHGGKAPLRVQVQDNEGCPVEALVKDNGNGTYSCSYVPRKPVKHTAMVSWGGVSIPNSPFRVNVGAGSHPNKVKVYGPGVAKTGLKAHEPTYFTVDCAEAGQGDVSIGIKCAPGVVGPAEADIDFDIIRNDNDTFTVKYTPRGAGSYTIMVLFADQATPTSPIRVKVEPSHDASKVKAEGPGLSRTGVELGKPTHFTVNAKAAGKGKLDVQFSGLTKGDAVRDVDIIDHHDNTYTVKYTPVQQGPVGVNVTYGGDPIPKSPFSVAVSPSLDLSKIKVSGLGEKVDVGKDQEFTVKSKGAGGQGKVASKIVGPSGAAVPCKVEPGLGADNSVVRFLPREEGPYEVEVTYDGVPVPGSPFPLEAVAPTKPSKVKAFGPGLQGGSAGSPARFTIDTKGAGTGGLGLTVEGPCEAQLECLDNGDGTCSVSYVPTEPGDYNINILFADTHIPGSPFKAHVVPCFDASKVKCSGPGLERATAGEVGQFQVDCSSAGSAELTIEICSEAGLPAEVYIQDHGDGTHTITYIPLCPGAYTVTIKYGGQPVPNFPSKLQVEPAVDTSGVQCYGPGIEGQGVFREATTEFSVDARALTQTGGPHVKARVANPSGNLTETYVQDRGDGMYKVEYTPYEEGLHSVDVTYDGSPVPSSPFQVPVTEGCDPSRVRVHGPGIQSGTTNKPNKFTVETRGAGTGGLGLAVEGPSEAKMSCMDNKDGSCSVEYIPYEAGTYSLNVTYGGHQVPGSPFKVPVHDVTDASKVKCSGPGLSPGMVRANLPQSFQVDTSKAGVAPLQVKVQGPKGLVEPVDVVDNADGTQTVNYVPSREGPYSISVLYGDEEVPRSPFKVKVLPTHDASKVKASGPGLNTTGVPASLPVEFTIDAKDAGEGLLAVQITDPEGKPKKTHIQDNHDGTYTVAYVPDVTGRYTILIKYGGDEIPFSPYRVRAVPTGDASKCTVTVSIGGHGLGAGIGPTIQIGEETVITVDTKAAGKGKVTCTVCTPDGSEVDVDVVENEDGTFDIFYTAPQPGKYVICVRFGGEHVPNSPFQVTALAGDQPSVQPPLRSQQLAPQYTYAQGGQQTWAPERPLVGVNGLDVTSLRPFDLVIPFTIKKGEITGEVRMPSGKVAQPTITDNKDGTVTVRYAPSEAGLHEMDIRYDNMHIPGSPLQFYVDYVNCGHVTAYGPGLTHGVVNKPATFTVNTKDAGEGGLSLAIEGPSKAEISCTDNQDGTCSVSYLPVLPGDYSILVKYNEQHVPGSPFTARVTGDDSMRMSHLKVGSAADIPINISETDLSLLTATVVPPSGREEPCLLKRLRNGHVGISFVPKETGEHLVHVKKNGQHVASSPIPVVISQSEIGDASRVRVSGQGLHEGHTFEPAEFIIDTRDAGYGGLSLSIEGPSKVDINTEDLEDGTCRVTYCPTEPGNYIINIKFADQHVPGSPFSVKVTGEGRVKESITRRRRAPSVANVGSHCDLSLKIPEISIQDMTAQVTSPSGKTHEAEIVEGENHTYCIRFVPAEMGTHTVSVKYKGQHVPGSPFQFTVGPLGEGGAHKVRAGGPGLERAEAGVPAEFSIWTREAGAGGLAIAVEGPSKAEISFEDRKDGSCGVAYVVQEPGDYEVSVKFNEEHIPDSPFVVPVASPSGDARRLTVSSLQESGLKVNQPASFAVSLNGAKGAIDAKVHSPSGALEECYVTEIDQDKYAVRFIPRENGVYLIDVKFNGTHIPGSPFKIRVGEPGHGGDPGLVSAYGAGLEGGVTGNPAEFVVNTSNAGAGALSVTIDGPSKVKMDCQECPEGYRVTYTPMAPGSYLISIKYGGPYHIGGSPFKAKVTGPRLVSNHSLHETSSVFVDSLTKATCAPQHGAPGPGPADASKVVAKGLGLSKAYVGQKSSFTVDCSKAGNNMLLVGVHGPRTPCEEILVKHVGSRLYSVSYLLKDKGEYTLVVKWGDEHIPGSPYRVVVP
T9 sequence (P11441 whole entry): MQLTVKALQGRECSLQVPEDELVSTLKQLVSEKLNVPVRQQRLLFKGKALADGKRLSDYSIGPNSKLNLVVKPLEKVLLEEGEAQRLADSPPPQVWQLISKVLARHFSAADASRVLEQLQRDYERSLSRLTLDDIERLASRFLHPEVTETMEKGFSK
T11 sequence (O60664 whole entry): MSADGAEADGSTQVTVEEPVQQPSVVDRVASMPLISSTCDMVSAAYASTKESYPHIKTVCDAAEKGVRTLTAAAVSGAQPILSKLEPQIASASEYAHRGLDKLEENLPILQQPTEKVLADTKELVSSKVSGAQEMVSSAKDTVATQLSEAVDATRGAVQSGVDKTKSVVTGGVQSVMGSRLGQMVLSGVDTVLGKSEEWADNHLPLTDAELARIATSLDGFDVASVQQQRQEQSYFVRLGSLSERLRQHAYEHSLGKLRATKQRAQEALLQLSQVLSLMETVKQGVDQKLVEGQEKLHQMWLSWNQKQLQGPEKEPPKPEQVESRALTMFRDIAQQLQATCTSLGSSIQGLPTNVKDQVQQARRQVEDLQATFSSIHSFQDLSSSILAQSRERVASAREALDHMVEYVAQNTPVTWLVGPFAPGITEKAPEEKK

Structure (SMILES)	Average LFQ intensity [1]	Average LFQ PON_WT [2]	Average LFQ PON_WT [3]	Average LFQ PON_WT [4]	Average LFQ PON_WT [5]	Average LFQ PON_WT [6]	Average LFQ PON_WT [7]	Average LFQ PON_WT [8]	Average LFQ PON_WT [9]	Average LFQ PON_WT [10]	Average LFQ PON_WT [11]	Average LFQ PON_WT [12]	Average LFQ PON_WT [13]
Cc1ccc(C(=O)Nc2ccc(CN3CCN(CCCN)CC3)c(C(F)(F)F)c2)cc1C#Cc1cnc2cccnn12 [c-ponatinib, reference compound]	22.1378												
Cc1ccc(C(=O)Nc2ccc(CN3CCN(C)CC3)c(C(F)(F)F)c2)cc1C#Cc1cnc2cccnn12 [PON]		23.258	27.2483	21.0295	24.1054	26.0565	20.1092	20.775	20.3097	25.7064	20.1604	20.9766	24.9214
